Laboratory results reported in PubChem BioAssay (NCI).
Several values for one entry are separate records, joined by “and”; a condition that tells them apart may be missing. Equal entries are not always repeated.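 Each compound was tested at five concentrations against cells in 96-well plates for 48 hours. Abbreviation: GI50, concentration required for 50% inhibition of growth. TGI denotes the concentration required for complete inhibition of growth.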 Where a SMILES comes first, the peptide text is derived from it. [ ]: non-standard residue; d: D form. The star is where a group is joined. X28 = COC1=CC(=O)N(C(=O)[C@@H](O*)C(C)C)[C@H]1Cc1ccccc1; NMeL = CN[C@@H](CC(C)C)C(=O)O; Cbz = O=C(OCc1ccccc1)*

How the values were obtained:
Experiment in all cases: NCI anticancer screen, dose series, 48 h
EKVX NSCLC = system: EKVX NSCLC
HCT-116 colon = system: HCT-116 colon
K-562 leukemia = system: K-562 leukemia
LOX IMVI melanoma = system: LOX IMVI melanoma
MALME-3M melanoma = system: MALME-3M melanoma
MCF7 breast = system: MCF7 breast
MDA-MB-231 breast = system: MDA-MB-231 breast
OVCAR-8 ovarian = system: OVCAR-8 ovarian
SR leukemia = system: SR leukemia
UACC-257 melanoma = system: UACC-257 melanoma

SMILES	TGI (EKVX NSCLC)	TGI (HCT-116 colon) [µM]	TGI (K-562 leukemia) [µM]	TGI (LOX IMVI melanoma) [µM]	TGI (MALME-3M melanoma)	TGI (MCF7 breast) [µM]	TGI (MDA-MB-231 breast) [µM]	TGI (OVCAR-8 ovarian) [µM]	TGI (SR leukemia) [µM]	TGI (UACC-257 melanoma) [µM]	GI50 (EKVX NSCLC) [µM]	GI50 (K-562 leukemia) [µM]	GI50 (SR leukemia) [µM]	GI50 (MCF7 breast) [µM]	GI50 (OVCAR-8 ovarian) [µM]	GI50 (UACC-257 melanoma) [µM]
COC(=O)Nc1nc2ccc(NS(=O)(=O)c3ccc(F)cc3)cc2[nH]1	> 100 µM	> 100	> 100	> 100	> 100 µM	> 100	> 100	> 100								
O=C(/C=C/c1ccsc1)c1ccc(Cl)s1	> 100 µM	60.5		37.1	> 100 µM	> 100	> 100	> 100	54	> 100						
COc1ccc(C2c3c(-c4ccccc4)nn(-c4ccccc4)c3Oc3ncn(N)c(=N)c32)cc1OC (stereo not drawn)	4.13 µM	3.24	> 100		3.24 µM	3.26	3.8	5.89	> 26.6	3.82						
CCC(=O)n1c(=O)n(-c2ccc([N+](=O)[O-])cc2)c(=O)n1C(=O)CC	> 100 µM	> 100	> 100	> 100		> 100	> 100	> 100	> 100	> 100						
O=C(/C=C\c1ccc(OCCCCCC[P+](c2ccccc2)(c2ccccc2)c2ccccc2)cc1)c1ccc2c(c1)OCCO2	6.72 µM		> 100						9.07		1.5	0.494	0.656			
CC1(C)C(C(=O)OC(C#N)c2cccc(OCC(=O)OCc3ccccc3)c2)C1(C)C (stereo not drawn)	> 100 µM	> 100	> 100	> 100	> 100 µM	> 100	> 100	> 100		> 100						
Cc1cc(C)c(N)c(C)c1N	> 100 µM	> 100	> 100	> 100	> 100 µM			> 100	> 100	> 100						
CCCCCCCCCCOC1C(C(C)OCCCN(C)C)OC2OC3(CCCCC3)OC21 (stereo not drawn)	33 µM	26.4	12.6	10.7	29.5 µM	42.8	29.8	34.6		35.5						
O=C(NN1C(=O)C(Cl)C1c1ccc([N+](=O)[O-])cc1)c1ccccc1O (stereo not drawn)	> 100 µM	> 100	> 100		> 100 µM			> 100	> 100	> 100						
CN(C)S(=O)(=O)c1cccc(-c2nc3sc4c(c3c(=O)[nH]2)CCCC4)c1	> 100 µM		> 100			> 100		> 100		> 100	> 100	> 100		> 100	1.52	> 100
CCOC(=O)/C(=C\NC#N)c1nc2ccccc2[nH]1	> 100 µM	> 100		> 100	> 100 µM	> 100		> 100	> 100	> 100						
COc1cc(C(c2cc(OC)c(OC)c(OC)c2)N2C(=O)CCC2C(=O)O)cc(OC)c1OC (stereo not drawn)	> 100 µM	> 100	> 100		> 100 µM	> 100	> 100	> 100	> 100	> 100						
CCOC(=O)C1CCn2c(nc3c(=O)n(C)c(=O)n(C)c32)S1 (stereo not drawn)	> 100 µM	> 100	> 100	> 100	> 100 µM			> 100	> 100	> 100						
COC1=CC(=O)N(C(=O)[C@@H](OC(=O)[C@@H]2CCCN2C(=O)[C@@H]2CCCN2C(=O)[C@H](CC(C)C)N(C)C(=O)[C@@H](NC(=O)[C@@H](NC(=O)OCc2ccccc2)C(C)C)C(C)C)C(C)C)[C@H]1Cc1ccccc1 (Cbz-VV[NMeL]PP-X28)	> 100 µM	> 100	> 100	> 100	> 100 µM	> 100	61.9	> 100		> 100						
Cc1ccc(C(=O)/C=C/N2CCN(c3cccc(C(F)(F)F)c3)CC2)cc1	41.8 µM	30.6	49.1		38.1 µM	34	33.4	38.9	40.3	32.5						
O=C1O[C@H](COC(=O)c2ccccc2)[C@@H](OC(=O)c2ccccc2)C=C1OC(=O)c1ccccc1	34.3 µM	32	57.4	39.3		91.3	36.2	45.4	46.9	69.3						
CN(C)Cc1cc(C(=O)/C=C/c2c(F)cccc2Cl)cc(CN(C)C)c1O	28.7 µM	16.2	26.8	18.5	25.7 µM	20.2	27.5	41.2		24.6						
CCC(C)N1CN(c2ccccc2)C2(CCN(CCCC(=O)c3ccc(F)cc3)CC2)C1=O (stereo not drawn)	36.4 µM	3.16	> 100	10.8	27.8 µM	11.5	23.1		23.3							
O=C(O)C1Cc2ccccc2OC1=O (stereo not drawn)	> 100 µM	> 100	> 100		> 100 µM	> 100	> 100	> 100	> 100	> 100						
COc1ccc(-c2c(C(C)=O)c(-c3ccccc3)n(C3OC(COC(C)=O)C(OC(C)=O)C(OC(C)=O)C3OC(C)=O)c(=S)c2C#N)cc1O (stereo not drawn)	79.3 µM and > 100 µM	> 100	> 100	> 100	40.5 µM and 55.9 µM	> 100			> 100	> 100						
CCCCCCCCC[C@@H]1C[C@@H]2CCC3C(C(=O)OCCCCNC(=O)OCc4ccccc4)=C(C)NC(=N1)N32 (stereo partly drawn)	7.76 µM	10	3.83	4.31		4.72	6.09	8.7		12.2						
